Measured values published in ChEMBL document CHEMBL1158090, “Cytotoxic cycloartane triterpene saponins from Actaea asiatica” (J Nat Prod, 2006).
The source made the active and inactive calls. No cut-off for these calls is given here.

Tests used:
Type in all cases: functional, cell-based
MCF7 = experiment: Cytotoxicity against human MCF7 cells
[1] = (§1) Cytotoxicity against human Hep G2 cells; settings: HepG2
HepG2 = experiment: as §1

With CC(=O)O[C@@H]1C[C@@]23C[C@@]24CC[C@H](O[C@@H]2OC[C@@H](O)[C@H](O)[C@H]2O)C(C)(C)[C@@H]4CC=C3[C@]2(C)C[C@@H]3OC(C(=O)C(C)C)=C[C@@H](C)[C@@H]3[C@@]12C [ASIATICOSIDE B] the IC50 (MCF7) was 8.32 µM and the IC50 [1] was 9.74 µM.
In the case of C[C@@H]1C[C@]2(OCC[C@]3(C)O[C@H]23)O[C@H]2C[C@@]3(C)C4=CC[C@H]5C(C)(C)[C@@H](O[C@@H]6OC[C@@H](O)[C@H](O)[C@H]6O)CC[C@@]56C[C@@]46CC[C@]3(C)[C@@H]12, the Activity (MCF7) is reported as “inactive” and the Activity (HepG2) is reported as “inactive”.
For CC(=O)O[C@@H]1C[C@@]23C[C@@]24CC[C@H](O[C@@H]2OC[C@@H](O)[C@H](O)[C@H]2O)C(C)(C)[C@@H]4CC[C@H]3[C@]2(C)C[C@@H]3OC(C(=O)C(C)C)=C[C@@H](C)[C@@H]3[C@@]12C [ASIATICOSIDE A], the IC50 (MCF7) was 9.78 µM and the IC50 [1] was 9.9 µM.
